Data: publication PMC11059093 (Frontiers in Chemistry, 2024)

What was measured:
[1] = target: T1, Aβ1–42 (Homo sapiens, UniProt P05067); experiment: Inhibition of self-mediated Aβ1–42 aggregation, thioflavin T fluorescence assay; format: biochemical; settings: ThT assay, compounds 20 μM, mean of n = 3 ± SD
T1 construct: Aβ1−42 (Sigma-Aldrich) was dissolved in NH4OH (1% v/v) to get a stock solution; purchased Sigma-Aldrich

[2] = in vitro; settings: PAMPA
[3] = Oxygen radical absorbance capacity (ORAC-FL) assay; settings: compounds 5 µM, mean of n = 3 ± SD
Procedure: The solution of 2,2′-azobis- (amidinopropane) dihydrochloride (AAPH) was prepared to a final concentration of 40 mM. The mixture of the tested compounds (20 µL) and FL (120 μL; 70 nM) was pre-incubated for 10 min at 37°C, 60 µL of the AAPH solution was added. The fluorescence was recorded every minute for 120 min (excitation, 485 nm; emission, 520 nm). The antioxidant curves (fluorescence versus time) were normalized to the curve of the blank.
Where f0 is the initial fluorescence reading at 0 min and fi is the fluorescence reading at time i. The net AUC was calculated by the expression: AUCsample—AUCblank. Regression equations between net AUC and Trolox concentration were calculated. ORAC-FL value of the tested compound expressed as Trolox equivalents.

[4] = Parallel artificial membrane permeability assay for the blood-brain barrier (PAMPA-BBB); settings: for P e / Papp: PAMPA; for P e: can cross the blood-brain barrier; for pred (predicted BBB permeation): classified from PAMPA-BBB Pe
[5] = target: T2, Cu^2+-induced Aβ1-42 aggregation (Homo sapiens, UniProt P05067); experiment: Cu^2+-induced Aβ1-42 aggregation, thioflavin T fluorometric detection; format: biochemical; settings: ThT, compound stock 150 μM; for Disaggregation of Cu^2+-induced Aβ1-42 aggregation: Figure 4A; for Inhibition of Cu^2+-induced Aβ1-42 aggregation: Figure 4B
T2 construct: Aβ1-42 (Sigma-Aldrich A9810, 20 μM) was dissolved in HEPES buffer; purchased Sigma-Aldrich A9810
T2 sequence (P05067 672-713 limits assumed): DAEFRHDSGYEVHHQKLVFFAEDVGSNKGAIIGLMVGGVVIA
Procedure: To further detect the ability of compounds 6b, CQ and MT to disaggregate or inhibit the Cu^2+-induced Aβ1-42 aggregation, we conducted thioflavin T fluorometric detection ([Hu et al., 2019]).
Detection of the compounds for disaggregated and inhibitory effects on Cu^2+ induced Aβ1-42 aggregation. Aβ1-42 (Sigma-Aldrich A9810, 20 μM) was dissolved in HEPES buffer (pH = 6.6, containing 1% ammonium hydroxide). 10 μL of Aβ1-42 was previously incubated with or without Cu^2+ at 37°C for 3 days to pre-fibrillation. 10 μL of 6b, CQ, and MT (150 μM, in DMSO) were incubated before or after the pre-fibrillation of Aβ1-42 at 37°C for 1 day. After incubation, 170 μL of thioflavin T (5 μM, in 50 mM glycine-NaOH buffer) was added to mix well. After incubation for 5 min, the Aβ1-42 aggregation was detected by Microplate Reader (HITACHI, F-4700) with excitation/emission at 450/485 nm.

[6] = system: SH-SY5Y; experiment: Cytotoxicity assay on SH-SY5Y cells; format: cell-based
Procedure: (§1) To further investigate the bioactivity of the compounds, cytotoxicity was evaluated on SH-SY5Y and BV2 cell lines (Figures 2A, B).
(§2) FIGURE 2 Cytotoxicity assay of 6b and 6c on SH-SY5Y (A) and BV2 (B). Protective effect of 6b and 6c against H2O2 induced SH-SY5Y oxidative stress (C).

[7] = system: BV2; experiment: Cytotoxicity assay on BV2 cells; format: cell-based; settings: BV2, 20 μM
Procedure: as §1, §2

[8] = system: SH-SY5Y; experiment: Hydrogen peroxide induced oxidative stress (ROS, DCFH-DA probe) in SH-SY5Y cells; format: cell-based; settings: SH-SY5Y treated with 400 μM hydrogen peroxide for 12 h
Excerpt: as §2
The effect of 6b and 6c on the oxidative stress of SH-SY5H cells induced by hydrogen peroxide was investigated using DCFH-DA as the fluorescent probe ([Xu et al., 2021]).

[9] = Metal-chelating study by UV spectrophotometry; format: physicochemical; settings: for Metal-chelating property: 50 µM compound with Cu^2+, Zn^2+, Fe^2+ or Fe^3+ (50 µM), HEPES pH 7.4, UV-vis; for Inflection point, concentration ratio of Cu^2+ to compound: 50 µM compound, 0–100 µM copper ion, inflection point method
Procedure: To further evaluate multi-target anti-AD potential, the metal-chelating properties of 6b and 6c were determined by UV spectrophotometry ([Geng et al., 2012]; [Lu et al., 2013]; [Hu et al., 2019]). […] While co-incubated with Fe^3+ or Fe^2+, the intensity at 255 nm was in different degrees decreased. The same result occurred for 6c. […] Next, the chelation ratios of 6b and 6c to Cu^2+ were measured and calculated using the inflection point method (Figures 3B, D). The inflection point appears when the concentration ratio of compound Cu^2+ to 6b or 6c is 0.5, so it can be inferred that the chelation ratio of compound 6b and 6c to Cu^2+ is 2:1.
6b and 6c (50 µM) were incubated with CuSO4, FeSO4, FeCl3, or ZnCl2 (50 µM) in buffer (20 mM HEPES, 150 mM NaCl, pH 7.4) for 30 min, and the absorption spectras were recorded at room temperature. For the stoichiometry of the compound–Cu^2+ complex, a fixed amount of 6b and 6c (50 µM) was mixed with growing amounts of copper ion (0–100 µM), and the difference UV−vis spectra were examined to investigate the ratio of ligand/metal in the complex.

[10] = 13 commercial drugs for validation, literature value; ref Bibl a; cited from earlier work

T1 sequence (P05067 672-713 limits assumed): as above

CN(CCc1c[nH]c2ccccc12)Cc1ccc2cccc(O)c2n1 [Compound 4, 2-(((2-(1H-indol-3-yl)ethyl)(methyl)amino)methyl)quinolin-8-ol]
inhibition at 20 µM [1]: 52.5 ± 6.47%
Papp [2]: 9.87 ± 0.66 ×10⁻⁶ cm/s
ORAC [3]: 2.93 ± 0.15 Trolox equivalents
P e [4]: > 4.7
pred (predicted BBB permeation) [4]: CNS+ (Compounds of high BBB permeation (CNS+) Pe>4.7)

O=C(NCc1c[nH]c2ccccc12)c1ccc2cccc(O)c2n1 [Compound 6d, N-((1H-indol-3-yl)methyl)-8-hydroxyquinoline-2-carboxamide]
inhibition at 20 µM [1]: 19.2 ± 5.85%
ORAC [3]: 2.32 ± 0.17 Trolox equivalents
Papp [4]: 6.81 ± 1.13 ×10⁻⁶ cm/s
P e [4]: > 4.7
pred (predicted BBB permeation) [4]: CNS+ (Compounds of high BBB permeation (CNS+) Pe>4.7)

O=C(NCCc1c[nH]c2ccccc12)c1ccc2cccc(O)c2n1 [Compound 6a, N-(2-(1H-indol-3-yl)ethyl)-8-hydroxyquinoline-2-carboxamide]
inhibition at 20 µM [1]: 45.45 ± 0.41%
ORAC [3]: 2.49 ± 0.22 Trolox equivalents
Papp [4]: 7.71 ± 0.61 ×10⁻⁶ cm/s
P e [4]: > 4.7
pred (predicted BBB permeation) [4]: CNS+ (Compounds of high BBB permeation (CNS+) Pe>4.7)

COc1ccc2[nH]cc(CCNCc3ccc4cccc(O)c4n3)c2c1 [Compound 3b, 2-(((2-(5-methoxy-1H-indol-3-yl)ethyl)amino)methyl)quinolin-8-ol]
inhibition at 20 µM [1]: 18.2 ± 2.02%
Papp [2]: 6.61 ± 0.22 ×10⁻⁶ cm/s
ORAC [3]: 3.25 ± 0.10 Trolox equivalents
P e [4]: > 4.7
pred (predicted BBB permeation) [4]: CNS+ (Compounds of high BBB permeation (CNS+) Pe>4.7)

COc1cc(/C=C/C(=O)CC(=O)/C=C/c2ccc(O)c(OC)c2)ccc1O [Curcumin, reference compound]
inhibition at 20 µM [1]: 52.9 ± 6.38%

Oc1ccc2[nH]cc(CCNCc3ccc4cccc(O)c4n3)c2c1 [Compound 3c, 2-(((2-(5-hydroxy-1H-indol-3-yl)ethyl)amino)methyl)quinolin-8-ol]
inhibition at 20 µM [1]: 40.2 ± 2.89%
Papp [2]: 4.81 ± 0.87 ×10⁻⁶ cm/s
ORAC [3]: 4.47 ± 0.18 Trolox equivalents
P e [4]: > 4.7
pred (predicted BBB permeation) [4]: CNS+ (Compounds of high BBB permeation (CNS+) Pe>4.7)

Oc1c(I)cc(Cl)c2cccnc12 [CQ, clioquinol, reference compound]
inhibition at 20 µM [1]: 30.8 ± 1.08%
Disaggregation of Cu^2+-induced Aβ1-42 aggregation [5]: significantly disaggregated

COc1ccc2[nH]cc(CCNC(=O)c3ccc4cccc(O)c4n3)c2c1 [Compound 6b, 8-hydroxy-N-(2-(5-methoxy-1H-indol-3-yl)ethyl)quinoline-2-carboxamide]
inhibition at 20 µM [1]: 63.2 ± 2.02%
Cytotoxicity ([6]; 5 μM): no cytotoxicity
Cytotoxicity ([6]; 10 μM): slight toxicity
Cytotoxicity [7]: no significant cytotoxicity
ROS production after pretreatment [8]: reduced ROS production in a dose-dependent manner
Metal-chelating property [9]: possess metal-chelating properties
Inflection point, concentration ratio of Cu^2+ to compound [9]: 0.5
Disaggregation of Cu^2+-induced Aβ1-42 aggregation [5]: significantly disaggregated
Inhibition of Cu^2+-induced Aβ1-42 aggregation [5]: distinct inhibitory effect
ORAC [3]: 2.76 ± 0.01 Trolox equivalents
Papp [4]: 6.91 ± 0.92 ×10⁻⁶ cm/s
P e [4]: > 4.7
pred (predicted BBB permeation) [4]: CNS+ (Compounds of high BBB permeation (CNS+) Pe>4.7)

COc1ccc2[nH]cc(CC(=O)NCc3ccc(O)c4ncccc34)c2c1 [Compound 11b, N-((8-hydroxyquinolin-5-yl)methyl)-2-(5-methoxy-1H-indol-3-yl)acetamide]
inhibition at 20 µM [1]: 34.9 ± 2.91%
ORAC [3]: 3.58 ± 0.12 Trolox equivalents
Papp [4]: 1.35 ± 0.25 ×10⁻⁶ cm/s
pred (predicted BBB permeation) [4]: CNS− (Compounds of low BBB permeation (CNS -) Pe<1.8)

COc1ccc2[nH]cc(CCNC(=O)c3ccc4cccnc4c3O)c2c1 [Compound 13b, 8-hydroxy-N-(2-(5-methoxy-1H-indol-3-yl)ethyl)quinoline-7-carboxamide]
inhibition at 20 µM [1]: 19.7 ± 2.06%
ORAC [3]: 1.33 ± 0.02 Trolox equivalents
Papp [4]: 1.12 ± 0.42 ×10⁻⁶ cm/s
pred (predicted BBB permeation) [4]: CNS− (Compounds of low BBB permeation (CNS -) Pe<1.8)

CN(C)CCCN1c2ccccc2Sc2ccc(Cl)cc21 [Chlorpromazinne, chlorpromazine, reference compound]
Papp [4]: 6.63 ± 0.81 ×10⁻⁶ cm/s
pred (predicted BBB permeation) [4]: CNS+ (Compounds of high BBB permeation (CNS+) Pe>4.7)

Oc1cccc2ccc(CNCCc3c[nH]c4ccccc34)nc12 [Compound 3a, 2-(((2-(1H-indol-3-yl)ethyl)amino)methyl)quinolin-8-ol]
inhibition at 20 µM [1]: 27.1 ± 5.01%
Papp [2]: 8.08 ± 0.56 ×10⁻⁶ cm/s
ORAC [3]: 3.50 ± 0.12 Trolox equivalents
P e [4]: > 4.7
pred (predicted BBB permeation) [4]: CNS+ (Compounds of high BBB permeation (CNS+) Pe>4.7)

O=C(NCCc1c[nH]c2ccc(O)cc12)c1ccc2cccc(O)c2n1 [Compound 6c, 8-hydroxy-N-(2-(5-hydroxy-1H-indol-3-yl)ethyl)quinoline-2-carboxamide]
inhibition at 20 µM [1]: 40.3 ± 2.09%
Cytotoxicity ([6]; 5 μM): no cytotoxicity
Cytotoxicity ([6]; 10 μM): slight toxicity
Cytotoxicity [7]: no significant cytotoxicity
ROS production after pretreatment [8]: reduced ROS production in a dose-dependent manner
Metal-chelating property [9]: possess metal-chelating properties
Inflection point, concentration ratio of Cu^2+ to compound [9]: 0.5
ORAC [3]: 3.23 ± 0.02 Trolox equivalents
Papp [4]: 2.96 ± 0.58 ×10⁻⁶ cm/s
pred (predicted BBB permeation) [4]: CNS± (Compounds of uncertain BBB permeation (CNS+/ -) 4.7>Pe>1.8)

O=C(NCc1c[nH]c2ccccc12)c1ccc2cccnc2c1O [Compound 13c, N-((1H-indol-3-yl)methyl) -8-hydroxyquinoline-7-carboxamide]
inhibition at 20 µM [1]: 38.6 ± 5.12%
ORAC [3]: 0.94 ± 0.02 Trolox equivalents
Papp [4]: 2.65 ± 0.46 ×10⁻⁶ cm/s
pred (predicted BBB permeation) [4]: CNS± (Compounds of uncertain BBB permeation (CNS+/ -) 4.7>Pe>1.8)

CN(C)CCCN1c2ccccc2Sc2ccccc21 [promazine]
Pe, Bibl [10]: 8.8 ×10⁻⁶ cm/s

Oc1cccc2ccc(CNCc3c[nH]c4ccccc34)nc12 [Compound 3d, 2-((((1H-indol-3-yl)methyl)amino)methyl)quinolin-8-ol]
inhibition at 20 µM [1]: 20.5 ± 4.72%
ORAC [3]: 2.60 ± 0.20 Trolox equivalents
Papp [4]: 5.09 ± 1.32 ×10⁻⁶ cm/s
P e [4]: > 4.7
pred (predicted BBB permeation) [4]: CNS+ (Compounds of high BBB permeation (CNS+) Pe>4.7)

CN1C(C(=O)Nc2ccccn2)=C(O)c2ccccc2S1(=O)=O [piroxicam]
Pe, Bibl [10]: 2.5 ×10⁻⁶ cm/s

COc1ccc2[nH]cc(CCNC(C)=O)c2c1 [Melatonin]
inhibition at 20 µM [1]: 39 ± 9.35%
Disaggregation of Cu^2+-induced Aβ1-42 aggregation [5]: mild disaggregated effect
Inhibition of Cu^2+-induced Aβ1-42 aggregation [5]: weak inhibitory activity

O=C(NCCc1c[nH]c2ccccc12)c1ccc2cccnc2c1O [Compound 13a, N-(2-(1H-indol-3-yl)ethyl)-8-hydroxyquinoline-7-carboxamide]
inhibition at 20 µM [1]: 47 ± 6.25%
ORAC [3]: 1.06 ± 0.07 Trolox equivalents
Papp [4]: 3.98 ± 0.45 ×10⁻⁶ cm/s
pred (predicted BBB permeation) [4]: CNS± (Compounds of uncertain BBB permeation (CNS+/ -) 4.7>Pe>1.8)

O=C(Cc1c[nH]c2ccccc12)NCc1ccc(O)c2ncccc12 [Compound 11a, N-((8-hydroxyquinolin-5-yl)methyl)-2-(1H-indol-3-yl)acetamide]
inhibition at 20 µM [1]: 44.7 ± 5.18%
ORAC [3]: 2.91 ± 0.16 Trolox equivalents
Papp [4]: 2.82 ± 0.42 ×10⁻⁶ cm/s
pred (predicted BBB permeation) [4]: CNS± (Compounds of uncertain BBB permeation (CNS+/ -) 4.7>Pe>1.8)
